The source of these data is patent US4461831A, “Antitumor agents albacarcins V and M” (Bristol-Myers Company, priority 1982, dated 1984).

≈ marks a conversion by molar mass, not a printed value. Where two headings read alike, the source gives them in different places.

The subject of assay [1] is Streptomyces albaduncus strain C38291. Kind of assay: growth inhibition of producing strain by antibiotics. The format is cell-based. From the text: The growth of strain C38291 is inhibited by streptomycin or tetracycline, but not by benzylpenicillin, ampicillin or erythromycin. The sodium chloride tolerance is seen at 8% or less, but not at 10% or more. Melanin is not produced from L-3,4-dihydroxy phenylalanine (L-DOPA). Among eleven diagnostic sugars described in Bergey's Manual, 8th ed. (1974), only raffinose is not utilized by strain C38291. The physiological characteristics and utilization of carbohydrates are shown in Tables II and III, respectively.

Assay [2] concerns Klebsiella pneumoniae. Kind of assay: antibacterial activity, serial two-fold agar dilution method. In kind it is cell-based. The settings on record: Strain No. 15130. The protocol: (§1) The antibacterial activities of albacarcin V and M were determined by a serial two-fold agar dilution method.
In general terms: In agar dilution, organisms are placed on agar that contains the substance at set levels.

The subject of assay [3] is Pseudomonas aeruginosa. The assay is described as above. The following applies: Strain No. 9843A. The format is cell-based. The protocol:
as §1

Assay [4] has as its system Streptococcus pneumoniae. The assay is described as above. The settings on record: Strain No. 9585. The format is cell-based. How it is done:
as §1

Assay [5] relates to Enterobacter cloacae. Described as above. The format is cell-based. The settings on record: Strain No. 9659. How it is done: as §1
In assay [6] the test system is Serratia marcescens. The description is as above. The format is cell-based. The settings on record: Strain No. 20019. How it is done: as §1
In assay [7] the test system is Proteus vulgaris. The assay is described as above. The following applies: Strain No. 21559. The format is cell-based. How it is done: as §1
Assay [8] has as its system Proteus mirabilis. The description is as above. In kind it is cell-based. The following applies: Strain No. 9900. The protocol:
as §1

Assay [9] concerns Staphylococcus aureus. The description is as above. The settings on record: for MIC: Staphylococcus aureus, read-out: Minimum Inhibitory Concentration. In kind it is cell-based. How it is done: as §1
In assay [10] the test system is Escherichia coli. The assay is described as above. The format is cell-based. The protocol:
as §1

For assay [11], the system named is Streptococcus pyogenes. Described as above. The following applies: Strain No. 9604. The format is cell-based. How it is done: as §1
For assay [12], the system named is gram-positive bacteria. The assay is described as follows: antibacterial activity, agar dilution, gram-positive summary. The settings on record: summary of Table IV. In kind it is cell-based. The protocol: as §1
Assay [13] deals with gram-negative bacteria. Kind of assay: antibacterial activity, agar dilution, gram-negative summary. In kind it is cell-based. The following applies: at the highest dose tested. The protocol: as §1
The test system of assay [14] is P388 leukemia. The format is in vivo, CDF1 female mice. The settings on record: for Effect MST % T/C / MST (median survival time): 3X, Days 1,4,7; for host survival in the P388 leukemia screening test (in words): mouse, in vivo. The text has this:
Details of the methods used in this procedure have been described in Cancer Chemother. Rep. 3: 1-87 (Part 3), 1972.
Host CDF1 .female. mice
Treatment 3X, Days 1,4,7
Evaluation MST = median survival time
Effect % T/C = (MST treated/MST control) × 100
Criteria % T/C ≥ 125 considered significant antitumor activity.

The conditions of assay [15]: reported in Antibiotiki 22: 963-967 at 967, 1977; cited from earlier work.

`CC[C@H]1OC(=O)[C@H](C)[C@@H](O[C@H]2C[C@@](C)(OC)[C@@H](O)[C@H](C)O2)[C@H](C)[C@@H](O[C@@H]2O[C@H](C)C[C@H](N(C)C)[C@H]2O)[C@](C)(O)C[C@@H](C)C(=O)[C@H](C)[C@@H](O)[C@]1(C)O` [erythromycin]: the “growth of strain C38291 inhibited or not” value in [1] was “not”.

Regarding `CC1(C)S[C@@H]2[C@H](NC(=O)Cc3ccccc3)C(=O)N2[C@H]1C(=O)O` [benzylpenicillin], the “growth of strain C38291 inhibited or not” value in assay [1] was “not”.

As to `CN(C)[C@@H]1C(=O)C(C(N)=O)=C(O)[C@@]2(O)C(=O)C3=C(O)c4c(O)cccc4[C@@](C)(O)[C@H]3C[C@@H]12` [tetracycline], the “growth of strain C38291 inhibited or not” value in [1] is reported as “inhibited”.

On to `[H]/N=C(/N)N[C@H]1[C@H](O)[C@@H](O)[C@H](O[C@@H]2O[C@@H](C)[C@](O)(C=O)[C@H]2O[C@@H]2O[C@@H](CO)[C@H](O)[C@@H](O)[C@@H]2NC)[C@@H](N/C(N)=N\[H])[C@@H]1O` [streptomycin], for which the “growth of strain C38291 inhibited or not” value in assay [1] is “inhibited”.

For the compound `C=Cc1cc(OC)c2c(c1)c(=O)oc1c2cc(OC)c2c(O)ccc(C3OC(C)C(O)C(C)(O)C3O)c21` (stereo not drawn) [Albacarcin V, albacarcin V], the “Minimum Inhibitory Concentration” value in assay [2] is greater than 50 µg/mL; in assay [3], greater than 50 µg/mL; in assay [4], 0.025 µg/mL; in assay [5], greater than 50 µg/mL; in assay [6], greater than 50 µg/mL; in assay [7], 3.2 µg/mL. For the same compound, the “Minimum Inhibitory Concentration” value in [8] is greater than 50 µg/mL; in assay [9] (Strain No. 9497) it was 0.0125 µg/mL; in assay [9] (Strain No. 9537), 0.0125 µg/mL; in assay [9] (Strain No. 9606), 0.4 µg/mL; in [9] (Strain No. 20688), 0.1 µg/mL; in assay [10] (Strain No. 15119), greater than 50 µg/mL. The “Minimum Inhibitory Concentration” value is greater than 50 µg/mL in assay [10] (Strain No. 20341-1) and 0.05 µg/mL in assay [11]. In assay [12], the “antibacterial potency relative to albacarcin M” value is given as “more potent than albacarcin M”. The “gram-positive antibacterial activity (in words)” value in [12] was “moderate gram-positive antibacterial activity”. Moreover, the “gram-negative activity (in words)” value in assay [13] is reported as “Little or no gram-negative activity”. The “Effect MST % T/C” value in [14] (8 mg/kg/inj) is 113 % T/C; in assay [14] (16 mg/kg/inj) it was 131 % T/C; in assay [14] (32 mg/kg/inj), 150 % T/C; in assay [14] (64 mg/kg/inj), 194 % T/C; in assay [14] (128 mg/kg/inj), 200 % T/C; in assay [14] (256 mg/kg/inj), 100 % T/C. Further, the “MST (median survival time)” value worked out at 9.0 days in [14] (8 mg/kg/inj); 10.5 days in assay [14] (16 mg/kg/inj); 12.0 days in assay [14] (32 mg/kg/inj); 15.5 days in assay [14] (64 mg/kg/inj); 16.0 days in assay [14] (128 mg/kg/inj); 8.0 days in assay [14] (256 mg/kg/inj). Besides, the “potency relative to albacarcin M in P388 test” value in [14] (comparing optimum doses (maximum T/C) and minimum effective dose (lowest dose giving T/C>125)) was “twice as potent as albacarcin M”. Besides, in assay [14], the “host survival in the P388 leukemia screening test (in words)” value is “significantly prolong host survival”.

For `CC1(C)S[C@@H]2[C@H](NC(=O)[C@H](N)c3ccccc3)C(=O)N2[C@H]1C(=O)O` [ampicillin], the “growth of strain C38291 inhibited or not” value in assay [1] was “not”.

Turning to `COc1cc2c(oc(=O)c3cc(C)cc(OC)c32)c2c(C3OC(C)C(O)C(C)(O)C3O)ccc(O)c12` (stereo not drawn) [Albacarcin M, albacarcin M], the MIC is greater than 50 µg/mL in assay [2] (Klebsiella pneumoniae, read-out: Minimum Inhibitory Concentration); greater than 50 µg/mL in assay [3] (Pseudomonas aeruginosa, read-out: Minimum Inhibitory Concentration); 0.4 µg/mL (≈ 0.806 µM) in assay [4] (Streptococcus pneumoniae, read-out: Minimum Inhibitory Concentration); greater than 50 µg/mL in assay [5] (Enterobacter cloacae, read-out: Minimum Inhibitory Concentration); greater than 50 µg/mL in [6] (Serratia marcescens, read-out: Minimum Inhibitory Concentration); greater than 50 µg/mL in assay [7] (Proteus vulgaris, read-out: Minimum Inhibitory Concentration). In addition, the MIC was greater than 50 µg/mL in assay [8] (Proteus mirabilis, read-out: Minimum Inhibitory Concentration); 0.8 µg/mL (≈ 1.61 µM) in assay [9] (Strain No. 9497); 3.2 µg/mL (≈ 6.44 µM) in assay [9] (Strain No. 9537); 3.2 µg/mL (≈ 6.44 µM) in assay [9] (Strain No. 9606); 1.6 µg/mL (≈ 3.22 µM) in assay [9] (Strain No. 20688); greater than 50 µg/mL in assay [10] (Escherichia coli, Strain No. 15119, read-out: Minimum Inhibitory Concentration). Besides, the MIC in [11] (Streptococcus pyogenes, read-out: Minimum Inhibitory Concentration) stood at 1.6 µg/mL (≈ 3.22 µM). For the same compound, the “Minimum Inhibitory Concentration” value in assay [10] (Strain No. 20341-1) was greater than 50 µg/mL. Also, the “gram-positive antibacterial activity (in words)” value in assay [12] is “moderate gram-positive antibacterial activity”. Moreover, in assay [13], the “gram-negative activity (in words)” value is reported as “Little or no gram-negative activity”. The “Effect MST % T/C” value in assay [14] (8 mg/kg/inj) came out at 113 % T/C; in assay [14] (16 mg/kg/inj) it was 119 % T/C; in assay [14] (32 mg/kg/inj), 150 % T/C; in [14] (64 mg/kg/inj), 150 % T/C; in assay [14] (128 mg/kg/inj), 175 % T/C; in assay [14] (256 mg/kg/inj), 200 % T/C. Moreover, the “MST (median survival time)” value in [14] (8 mg/kg/inj) is 9.0 days; in [14] (16 mg/kg/inj), 9.5 days; in assay [14] (32 mg/kg/inj), 12.0 days; in assay [14] (64 mg/kg/inj), 12.0 days; in [14] (128 mg/kg/inj), 14.0 days; in [14] (256 mg/kg/inj), 16.0 days. For the same compound, the “host survival in the P388 leukemia screening test (in words)” value in assay [14] is “significantly prolong host survival”.

In the case of virenomycin, the “antitumor activity (in words)” value in assay [15] is “comparatively low antitumor activity and narrow spectrum”.
